Reference: PubChem BioAssay (NCI)
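Method: 48-hour compound exposure of cells in 96-well plates, five concentrations, linear interpolation of endpoints. Abbreviation: GI50, concentration required for 50% inhibition of growth. TGI: concentration producing complete growth inhibition.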

Tests used:
Test in all cases: inhibition of tumour cell growth, NCI panel, 48 h
MDA-MB-231 breast = system: MDA-MB-231 breast
HT29 colon = system: HT29 colon
A549 NSCLC = system: A549 NSCLC
UO-31 renal = system: UO-31 renal
OVCAR-4 ovarian = system: OVCAR-4 ovarian
UACC-257 melanoma = system: UACC-257 melanoma
UACC-62 melanoma = system: UACC-62 melanoma
MALME-3M melanoma = system: MALME-3M melanoma
SF-268 CNS = system: SF-268 CNS
RXF 393 renal = system: RXF 393 renal
T-47D breast = system: T-47D breast
ACHN renal = system: ACHN renal
SK-OV-3 ovarian = system: SK-OV-3 ovarian
OVCAR-5 ovarian = system: OVCAR-5 ovarian
MCF7 breast = system: MCF7 breast
M14 melanoma = system: M14 melanoma
786-0 renal = system: 786-0 renal
CAKI-1 renal = system: CAKI-1 renal
SN12C renal = system: SN12C renal
A498 renal = system: A498 renal
HOP-92 NSCLC = system: HOP-92 NSCLC
SK-MEL-5 melanoma = system: SK-MEL-5 melanoma
MDA-MB-435 = system: MDA-MB-435
KM12 colon = system: KM12 colon
SK-MEL-28 melanoma = system: SK-MEL-28 melanoma
HCC-2998 colon = system: HCC-2998 colon
HS 578T breast = system: HS 578T breast
MOLT-4 leukemia = system: MOLT-4 leukemia
COLO 205 colon = system: COLO 205 colon
SW-620 colon = system: SW-620 colon
TK-10 renal = system: TK-10 renal
EKVX NSCLC = system: EKVX NSCLC
SF-539 CNS = system: SF-539 CNS
HL-60(TB) leukemia = system: HL-60(TB) leukemia
U251 CNS = system: U251 CNS
K-562 leukemia = system: K-562 leukemia
NCI-H460 lung = system: NCI-H460 lung
HCT-116 colon = system: HCT-116 colon
SK-MEL-2 melanoma = system: SK-MEL-2 melanoma
NCI-H522 lung = system: NCI-H522 lung
OVCAR-3 ovarian = system: OVCAR-3 ovarian
HCT-15 colon = system: HCT-15 colon
BT-549 breast = system: BT-549 breast
HOP-62 NSCLC = system: HOP-62 NSCLC
PC-3 prostate = system: PC-3 prostate
SR leukemia = system: SR leukemia
IGROV1 ovarian = system: IGROV1 ovarian
SNB-19 CNS = system: SNB-19 CNS
NCI/ADR-RES ovarian = system: NCI/ADR-RES ovarian
RPMI-8226 leukemia = system: RPMI-8226 leukemia
OVCAR-8 ovarian = system: OVCAR-8 ovarian
LOX IMVI melanoma = system: LOX IMVI melanoma
CCRF-CEM leukemia = system: CCRF-CEM leukemia
NCI-H226 lung = system: NCI-H226 lung
NCI-H23 lung = system: NCI-H23 lung
SNB-75 CNS = system: SNB-75 CNS
SF-295 CNS = system: SF-295 CNS
DU-145 prostate = system: DU-145 prostate

## COc1ccc2c(c1)=C(C=C1C=CN(O)C=C1)C(=O)N=2
MDA-MB-231 breast
  GI50: 23.6 µM
  TGI: > 100 µM
HT29 colon
  GI50: 17.1 µM
  TGI: > 66.8 µM
A549 NSCLC
  GI50: 29.8 µM
  TGI: > 100 µM
UO-31 renal
  GI50: 19.8 µM
  TGI: > 92.6 µM
OVCAR-4 ovarian
  GI50: 9.96 µM
  TGI: > 100 µM
UACC-257 melanoma
  GI50: 44.7 µM
  TGI: > 100 µM
UACC-62 melanoma
  GI50: 26.3 µM
  TGI: 86.1 µM
MALME-3M melanoma
  GI50: 24.3 µM
  TGI: 55.9 µM
SF-268 CNS
  GI50: 28.1 µM
  TGI: 93.2 µM
RXF 393 renal
  GI50: 33.9 µM
  TGI: 98.3 µM
T-47D breast
  GI50: 6.34 µM
  TGI: > 68.7 µM
ACHN renal
  GI50: 23.5 µM
  TGI: > 100 µM
SK-OV-3 ovarian
  GI50: 18.8 µM
  TGI: 54.5 µM
OVCAR-5 ovarian
  GI50: 12.7 µM
  TGI: 50.8 µM
MCF7 breast
  GI50: 20.9 µM
  TGI: > 100 µM
M14 melanoma
  GI50: 24.6 µM
  TGI: 65.9 µM
786-0 renal
  GI50: 31 µM
  TGI: > 92.3 µM
CAKI-1 renal
  GI50: 28.2 µM
  TGI: > 89.6 µM
SN12C renal
  GI50: 22.1 µM
  TGI: 59.2 µM
A498 renal
  GI50: 19.7 µM
  TGI: > 73.2 µM
HOP-92 NSCLC
  GI50: 25.9 µM
  TGI: > 100 µM
SK-MEL-5 melanoma
  GI50: 22.8 µM
  TGI: 63.9 µM
MDA-MB-435
  GI50: 35 µM
  TGI: > 89.6 µM
KM12 colon
  GI50: 17.4 µM
  TGI: 41.3 µM
SK-MEL-28 melanoma
  GI50: 27 µM
  TGI: > 100 µM
HCC-2998 colon
  GI50: 21.8 µM
  TGI: 47 µM
HS 578T breast
  GI50: 32.1 µM
  TGI: > 86.3 µM
MOLT-4 leukemia
  GI50: 31.2 µM
  TGI: > 100 µM
COLO 205 colon
  GI50: 3.84 µM
  TGI: 32.8 µM
SW-620 colon
  GI50: 25.5 µM
  TGI: > 67.8 µM
TK-10 renal
  GI50: 36.3 µM
  TGI: > 90.5 µM
EKVX NSCLC
  GI50: 43.9 µM
  TGI: > 100 µM
SF-539 CNS
  GI50: 28.8 µM
  TGI: > 65.8 µM
HL-60(TB) leukemia
  GI50: 22.4 µM
  TGI: 49.9 µM
U251 CNS
  GI50: 27.3 µM
  TGI: > 100 µM
K-562 leukemia
  GI50: 3.55 µM
  TGI: > 100 µM
NCI-H460 lung
  GI50: > 50.1 µM
  TGI: > 88.3 µM
HCT-116 colon
  GI50: 28.9 µM
  TGI: > 100 µM
SK-MEL-2 melanoma
  GI50: 26.7 µM
  TGI: 73.7 µM
NCI-H522 lung
  GI50: 20.5 µM
  TGI: 61.6 µM
OVCAR-3 ovarian
  GI50: 26.2 µM
  TGI: > 78.1 µM
HCT-15 colon
  GI50: 25 µM
  TGI: > 75.9 µM
BT-549 breast
  GI50: 22.6 µM
  TGI: 88.1 µM
HOP-62 NSCLC
  GI50: 40.2 µM
  TGI: > 100 µM
PC-3 prostate
  GI50: 29.5 µM
  TGI: > 100 µM
SR leukemia
  GI50: 18.2 µM
  TGI: > 100 µM
IGROV1 ovarian
  GI50: 16.2 µM
  TGI: > 94.4 µM
SNB-19 CNS
  GI50: 10.6 µM
  TGI: 64.8 µM
NCI/ADR-RES ovarian
  GI50: 30.3 µM
  TGI: > 86.9 µM
RPMI-8226 leukemia
  GI50: 24.1 µM
  TGI: > 67.7 µM
OVCAR-8 ovarian
  GI50: 29.9 µM
  TGI: 99.7 µM
LOX IMVI melanoma
  GI50: 23.9 µM
  TGI: > 67.3 µM
CCRF-CEM leukemia
  GI50: 25.3 µM
  TGI: > 79.1 µM
NCI-H226 lung
  GI50: 25.7 µM
  TGI: 97.5 µM
NCI-H23 lung
  GI50: 23.8 µM
  TGI: 72.3 µM
SNB-75 CNS
  GI50: 15.6 µM
  TGI: > 88.4 µM
SF-295 CNS
  GI50: 34.3 µM
  TGI: > 93.8 µM
DU-145 prostate
  GI50: 32.5 µM
  TGI: > 100 µM
